Data published in ChEMBL document CHEMBL4680207, “The discovery, design and synthesis of potent agonists of adenylyl cyclase type 2 by virtual screening combining biological evaluation” (Eur J Med Chem, 2020).

Assays:
Assay type in all cases: cell-based; call rule not given here
Adenylate cyclase type 1 = Adenylate cyclase type 1 (Homo sapiens, UniProt Q08828); experiment: Agonist activity at recombinant human AC1 expressed in HEK293 cells assessed as increase in cAMP level at 50 uM measured after 30 mins by LANCE Ultra cAMP Detection kit method; conditions: hek293, 0.5 h
Adenylate cyclase type 2 [1] = target: T1, Adenylate cyclase type 2 (Homo sapiens, UniProt Q08462); experiment: Agonist activity at recombinant human AC2 expressed in HEK293 cells assessed as increase in cAMP level by measuring cAMP level at 50 uM measured after 30 mins by LANCE Ultra cAMP Detection kit method relative to control; conditions: filed as agonist
Adenylate cyclase type 5 = Adenylate cyclase type 5 (Homo sapiens, UniProt O95622); experiment: Agonist activity at recombinant human AC5 expressed in HEK293 cells assessed as increase in cAMP level at 50 uM measured after 30 mins by LANCE Ultra cAMP Detection kit method; conditions: hek293, 0.5 h
Adenylate cyclase type 2 [2] = target: T1, Adenylate cyclase type 2; experiment: Potency index, ratio of forskolin EC50 to test compound EC50 for agonist activity at recombinant human AC2 expressed in HEK293 cells assessed as increase in cAMP level
Adenylate cyclase type 8 = Adenylate cyclase type 8 (Homo sapiens, UniProt P40145); experiment: Agonist activity at recombinant human AC8 expressed in HEK293 cells assessed as increase in cAMP level at 50 uM measured after 30 mins by LANCE Ultra cAMP Detection kit method; conditions: hek293, 0.5 h
Adenylate cyclase type 2 [3] = target: T1, Adenylate cyclase type 2; experiment: Agonist activity at recombinant human AC2 expressed in HEK293 cells assessed as reduction in IL6 level by measuring IL6 level at 50 uM measured after 24 hrs by ELISA relative to control; design: scale not given: the % may be the effect or the level left
Adenylate cyclase type 2 [4] = target: T1, Adenylate cyclase type 2; experiment: Agonist activity at recombinant human AC2 expressed in HEK293 cells assessed as increase in cAMP level measured after 30 mins by LANCE Ultra cAMP Detection kit method

T1 sequence (Q08462 whole entry): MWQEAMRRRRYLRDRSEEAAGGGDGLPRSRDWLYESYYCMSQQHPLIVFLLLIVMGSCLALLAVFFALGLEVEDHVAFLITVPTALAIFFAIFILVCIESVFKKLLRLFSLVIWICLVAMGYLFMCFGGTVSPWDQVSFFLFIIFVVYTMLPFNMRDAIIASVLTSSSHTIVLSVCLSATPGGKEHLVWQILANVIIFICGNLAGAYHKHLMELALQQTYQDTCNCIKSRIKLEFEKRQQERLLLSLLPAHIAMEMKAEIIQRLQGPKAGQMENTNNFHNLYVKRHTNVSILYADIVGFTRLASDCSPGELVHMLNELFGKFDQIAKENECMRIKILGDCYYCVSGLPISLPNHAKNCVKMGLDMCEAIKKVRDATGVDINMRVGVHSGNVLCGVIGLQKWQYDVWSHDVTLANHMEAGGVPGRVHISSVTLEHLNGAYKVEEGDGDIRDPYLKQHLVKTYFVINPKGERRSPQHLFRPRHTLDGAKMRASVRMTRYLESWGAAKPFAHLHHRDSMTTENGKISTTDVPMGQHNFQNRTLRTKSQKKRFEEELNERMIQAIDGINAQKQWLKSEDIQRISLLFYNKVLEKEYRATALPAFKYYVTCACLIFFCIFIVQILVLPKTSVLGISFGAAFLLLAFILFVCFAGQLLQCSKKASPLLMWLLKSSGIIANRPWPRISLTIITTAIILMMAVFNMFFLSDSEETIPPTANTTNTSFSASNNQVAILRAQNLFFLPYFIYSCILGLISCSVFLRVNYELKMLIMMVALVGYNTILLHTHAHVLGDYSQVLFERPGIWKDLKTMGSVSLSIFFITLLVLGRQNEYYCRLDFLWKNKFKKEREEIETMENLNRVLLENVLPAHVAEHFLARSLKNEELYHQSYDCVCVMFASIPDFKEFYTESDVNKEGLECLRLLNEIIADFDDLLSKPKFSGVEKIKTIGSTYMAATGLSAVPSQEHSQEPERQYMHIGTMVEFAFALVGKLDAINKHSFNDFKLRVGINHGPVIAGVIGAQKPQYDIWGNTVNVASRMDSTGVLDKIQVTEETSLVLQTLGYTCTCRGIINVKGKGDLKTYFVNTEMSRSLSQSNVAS
Sequence of Adenylate cyclase type 1 (Q08828 whole entry): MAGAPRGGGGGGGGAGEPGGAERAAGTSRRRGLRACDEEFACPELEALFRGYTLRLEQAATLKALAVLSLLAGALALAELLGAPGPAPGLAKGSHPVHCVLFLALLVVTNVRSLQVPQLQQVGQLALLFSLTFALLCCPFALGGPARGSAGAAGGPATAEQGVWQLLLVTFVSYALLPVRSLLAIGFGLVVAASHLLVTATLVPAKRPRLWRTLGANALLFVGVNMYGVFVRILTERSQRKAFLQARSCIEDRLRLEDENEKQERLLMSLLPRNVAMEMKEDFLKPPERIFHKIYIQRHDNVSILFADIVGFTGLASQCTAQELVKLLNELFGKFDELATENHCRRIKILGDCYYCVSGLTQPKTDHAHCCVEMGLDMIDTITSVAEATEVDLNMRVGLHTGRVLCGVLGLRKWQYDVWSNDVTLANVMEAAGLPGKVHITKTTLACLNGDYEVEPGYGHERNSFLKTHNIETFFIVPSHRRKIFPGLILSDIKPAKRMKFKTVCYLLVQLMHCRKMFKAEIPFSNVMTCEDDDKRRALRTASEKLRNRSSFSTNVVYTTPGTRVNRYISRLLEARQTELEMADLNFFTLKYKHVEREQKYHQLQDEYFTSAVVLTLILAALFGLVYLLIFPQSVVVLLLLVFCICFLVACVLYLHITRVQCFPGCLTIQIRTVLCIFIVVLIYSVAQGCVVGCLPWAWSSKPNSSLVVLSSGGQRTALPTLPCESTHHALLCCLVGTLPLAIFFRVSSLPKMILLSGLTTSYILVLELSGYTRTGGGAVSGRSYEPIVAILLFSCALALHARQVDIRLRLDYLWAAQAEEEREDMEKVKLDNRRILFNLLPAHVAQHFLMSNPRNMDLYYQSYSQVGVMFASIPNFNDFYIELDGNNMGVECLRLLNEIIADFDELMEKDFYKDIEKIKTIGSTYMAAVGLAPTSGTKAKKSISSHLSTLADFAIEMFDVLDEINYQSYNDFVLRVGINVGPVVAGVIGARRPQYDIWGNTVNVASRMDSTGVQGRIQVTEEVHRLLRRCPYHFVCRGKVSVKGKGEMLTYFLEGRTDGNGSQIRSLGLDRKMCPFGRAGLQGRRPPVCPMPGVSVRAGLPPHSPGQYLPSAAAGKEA
Sequence of Adenylate cyclase type 5 (O95622 whole entry): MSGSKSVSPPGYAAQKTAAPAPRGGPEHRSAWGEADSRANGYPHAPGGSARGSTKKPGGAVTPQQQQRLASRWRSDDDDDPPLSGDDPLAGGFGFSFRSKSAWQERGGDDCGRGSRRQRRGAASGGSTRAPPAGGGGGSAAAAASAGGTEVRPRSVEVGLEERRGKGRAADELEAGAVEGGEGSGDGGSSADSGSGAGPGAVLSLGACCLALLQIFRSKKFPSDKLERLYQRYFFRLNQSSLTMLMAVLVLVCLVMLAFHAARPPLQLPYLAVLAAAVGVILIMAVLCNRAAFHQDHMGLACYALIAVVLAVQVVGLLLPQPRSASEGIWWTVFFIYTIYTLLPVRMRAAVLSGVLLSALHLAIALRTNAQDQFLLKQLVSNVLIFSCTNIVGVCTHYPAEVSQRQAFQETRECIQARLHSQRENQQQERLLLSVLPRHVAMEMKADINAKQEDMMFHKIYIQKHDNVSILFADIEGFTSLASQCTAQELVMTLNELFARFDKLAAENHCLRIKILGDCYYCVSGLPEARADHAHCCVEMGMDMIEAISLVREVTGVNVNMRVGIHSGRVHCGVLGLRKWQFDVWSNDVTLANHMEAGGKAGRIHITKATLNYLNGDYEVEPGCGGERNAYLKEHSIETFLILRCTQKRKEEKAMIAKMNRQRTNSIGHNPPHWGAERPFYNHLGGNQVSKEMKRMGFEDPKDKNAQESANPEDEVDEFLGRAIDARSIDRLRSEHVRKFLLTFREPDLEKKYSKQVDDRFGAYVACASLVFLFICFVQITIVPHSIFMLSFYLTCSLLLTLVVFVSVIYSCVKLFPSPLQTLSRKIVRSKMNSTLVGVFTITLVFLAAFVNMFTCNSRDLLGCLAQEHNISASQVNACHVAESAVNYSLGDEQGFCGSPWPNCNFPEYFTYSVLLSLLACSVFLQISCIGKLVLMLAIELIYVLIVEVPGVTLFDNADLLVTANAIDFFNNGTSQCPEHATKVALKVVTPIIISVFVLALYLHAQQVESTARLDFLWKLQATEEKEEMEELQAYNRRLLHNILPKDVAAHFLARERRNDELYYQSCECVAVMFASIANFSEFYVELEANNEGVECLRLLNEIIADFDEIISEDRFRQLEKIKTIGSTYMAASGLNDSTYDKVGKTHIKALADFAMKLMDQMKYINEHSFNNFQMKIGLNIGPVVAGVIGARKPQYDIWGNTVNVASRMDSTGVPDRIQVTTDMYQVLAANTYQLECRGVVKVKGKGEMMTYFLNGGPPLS
Sequence of Adenylate cyclase type 8 (P40145 whole entry): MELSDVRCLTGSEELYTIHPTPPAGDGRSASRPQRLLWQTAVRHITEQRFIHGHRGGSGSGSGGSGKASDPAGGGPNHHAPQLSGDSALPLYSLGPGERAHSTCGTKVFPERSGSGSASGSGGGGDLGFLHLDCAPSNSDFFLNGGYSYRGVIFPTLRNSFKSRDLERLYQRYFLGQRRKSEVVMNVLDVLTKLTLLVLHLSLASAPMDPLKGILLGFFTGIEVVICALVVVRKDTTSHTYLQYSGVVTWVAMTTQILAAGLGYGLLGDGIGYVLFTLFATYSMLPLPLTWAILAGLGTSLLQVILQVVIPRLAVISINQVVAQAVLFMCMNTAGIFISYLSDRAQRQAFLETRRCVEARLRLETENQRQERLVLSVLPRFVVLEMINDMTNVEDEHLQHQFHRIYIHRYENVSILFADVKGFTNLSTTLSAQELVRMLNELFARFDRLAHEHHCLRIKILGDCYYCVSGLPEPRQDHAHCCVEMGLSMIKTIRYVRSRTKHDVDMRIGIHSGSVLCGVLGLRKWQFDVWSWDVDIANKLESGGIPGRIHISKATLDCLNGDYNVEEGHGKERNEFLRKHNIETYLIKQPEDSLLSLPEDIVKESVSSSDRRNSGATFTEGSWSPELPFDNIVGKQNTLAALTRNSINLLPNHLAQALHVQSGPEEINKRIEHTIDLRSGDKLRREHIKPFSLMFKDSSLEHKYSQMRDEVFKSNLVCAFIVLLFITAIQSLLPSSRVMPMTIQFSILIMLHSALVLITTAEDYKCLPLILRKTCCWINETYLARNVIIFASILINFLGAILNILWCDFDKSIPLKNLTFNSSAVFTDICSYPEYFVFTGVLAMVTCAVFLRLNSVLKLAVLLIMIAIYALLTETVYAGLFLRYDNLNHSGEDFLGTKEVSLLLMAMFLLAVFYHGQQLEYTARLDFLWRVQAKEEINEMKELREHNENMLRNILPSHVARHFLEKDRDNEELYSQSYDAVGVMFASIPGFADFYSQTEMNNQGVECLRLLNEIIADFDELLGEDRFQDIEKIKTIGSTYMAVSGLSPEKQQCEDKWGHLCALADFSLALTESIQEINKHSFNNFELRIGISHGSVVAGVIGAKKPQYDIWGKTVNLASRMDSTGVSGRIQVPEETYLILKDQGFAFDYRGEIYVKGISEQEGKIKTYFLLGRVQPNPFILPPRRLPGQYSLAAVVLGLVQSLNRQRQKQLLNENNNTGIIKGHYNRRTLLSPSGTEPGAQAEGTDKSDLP

- Activity (Adenylate cyclase type 1): Not Active
- Activity (Adenylate cyclase type 2 [1]): 87.8%
- Activity (Adenylate cyclase type 5): Not Active
- Ratio EC50 (Adenylate cyclase type 2 [2]): 160
- Activity (Adenylate cyclase type 8): Not Active
- Activity (Adenylate cyclase type 2 [3]): 37.1%
- EC50 (Adenylate cyclase type 2 [4]): 90 nM
Structure (SMILES): Cc1ccc([C@H]2OC3(C(=O)c4ccc(Br)cc4C3=O)[C@H]3C(=O)N(c4ccccc4Cl)C(=O)[C@@H]23)cc1 (some centres not stated)
